Source: US20260159512A1, “BCAT2 INHIBITORS” (AGIOS PHARMACEUTICALS, INC., priority 2021, published 2026)

Legend:
Conditions in all cases: average where tested multiple times
BCAT2 [1] = target: T1, BCAT2 (Homo sapiens, UniProt O15382); test: BCAT2 in vitro cell inhibition using engineered A549 cells (KMV cell assay, 13C6-KMV by LC-MS/MS); type: cell-based; design: The result was an engineered A549 cell line that expressed endogenous BCAT2; endogenous in cells; host or cells: A549 cells with MUT and BCAT1 knocked out by CRISPR/CAS9; key to BCAT2 Cell Inhibition: A: less than or equal to 0.100 μM; B: greater than 0.100 and less than or equal to 0.500 μM; C: greater than 0.500 and less than or equal to 1.000 μM; d: greater than 1.000 μM; E: no fit
T1 sequence (O15382 28-392): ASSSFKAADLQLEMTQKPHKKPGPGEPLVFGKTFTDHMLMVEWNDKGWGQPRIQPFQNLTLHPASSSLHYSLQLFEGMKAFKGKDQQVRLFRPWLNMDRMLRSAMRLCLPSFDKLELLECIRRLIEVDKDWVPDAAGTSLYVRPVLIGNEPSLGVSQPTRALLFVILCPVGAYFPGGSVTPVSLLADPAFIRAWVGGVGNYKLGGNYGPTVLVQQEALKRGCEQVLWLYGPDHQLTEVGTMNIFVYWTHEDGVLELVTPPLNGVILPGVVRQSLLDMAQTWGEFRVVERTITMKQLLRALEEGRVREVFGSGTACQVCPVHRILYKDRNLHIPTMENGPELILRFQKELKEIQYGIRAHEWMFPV

hBCAT1 = target: T2, hBCAT1 (Homo sapiens, UniProt P54687); test: BCAT1 in vitro enzyme inhibition assay (resazurin/diaphorase-coupled fluorescence); type: biochemical
T2 sequence (P54687 1-386): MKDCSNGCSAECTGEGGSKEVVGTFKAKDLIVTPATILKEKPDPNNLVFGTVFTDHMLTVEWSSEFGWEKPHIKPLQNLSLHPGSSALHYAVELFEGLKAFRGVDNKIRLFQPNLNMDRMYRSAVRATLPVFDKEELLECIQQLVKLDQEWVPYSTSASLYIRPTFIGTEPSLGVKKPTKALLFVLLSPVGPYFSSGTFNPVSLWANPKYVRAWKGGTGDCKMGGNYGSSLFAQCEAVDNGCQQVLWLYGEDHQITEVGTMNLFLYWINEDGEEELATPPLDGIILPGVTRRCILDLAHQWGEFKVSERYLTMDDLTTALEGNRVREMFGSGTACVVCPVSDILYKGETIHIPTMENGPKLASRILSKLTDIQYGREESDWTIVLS
Method in brief: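 Ten-point, 3-fold compound series (top final 100 μM, delivered 1:50 from 50× DMSO stocks) tested against hBCAT1. Inhibition detected via diaphorase-coupled resazurin fluorescence, duplicate wells, with values from repeated runs averaged.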

BCAT2 [2] = target: T1, BCAT2; test: BCAT2 in vitro enzyme inhibition assay (resazurin/diaphorase-coupled fluorescence); type: biochemical
Method in brief: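 Coupled fluorescence readout: glutamate formed from L-leucine/α-ketoglutarate transamination drives GDH/NAD/diaphorase reduction of resazurin (Ex 540/Em 590). Human BCAT2 was first exposed 1 h at room temperature to compound, top final 100 μM in 3-fold, 10-point series; substrate reaction ran 1 h before SDS quench, in technical duplicate with DMSO max and enzyme-free min controls.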

| SMILES | IC50 (BCAT2 [1]) [nM] | IC50 (hBCAT1) [nM] | IC50 (BCAT2 [2]) [nM] | BCAT2 Cell Inhibition (BCAT2 [1]) |
| --- | --- | --- | --- | --- |
| O=C(N[C@H]1CCC[C@@H](n2c(CC3CC3)nc3cnc(-c4nc[nH]n4)cc32)C1)c1ncc(Cl)s1 [Example 312, 5-chloro-N-((1S,3R)-3-(2-(cyclopropylmethyl)-6-(1H-1,2,4-triazol-3-yl)-1H-imidazo[4,5-c]pyridin-1-yl)cyclohexyl)thiazole-2-carboxamide] | ≤ 100 | < 500 | ≤ 100 |  |
| O=C(N[C@H]1CCC[C@@H](n2c(COC(F)(F)F)nc3cnc(-c4nc[nH]n4)cc32)C1)c1ncc(Cl)s1 [Example 313, N-((1S,3R)-3-(6-(1H-1,2,4-triazol-3-yl)-2-((trifluoromethoxy)methyl)-1H-imidazo[4,5-c]pyridin-1-yl)cyclohexyl)-5-chlorothiazole-2-carboxamide] | ≤ 100 | < 500 | ≤ 100 |  |
| COC(c1nc2cnc(-c3nc[nH]n3)cc2n1[C@@H]1CCC[C@H](NC(=O)c2ncc(Cl)s2)C1)C(C)C (stereo partly drawn) [Example 314, 5-chloro-N-((1S,3R)-3-(2-(1-methoxy-2-methylpropyl)-6-(1H-1,2,4-triazol-3-yl)-1H-imidazo[4,5-c]pyridin-1-yl)cyclohexyl)thiazole-2-carboxamide] | 100 to 500 | < 500 | ≤ 100 |  |
| O=C(N[C@H]1CCC[C@@H](n2c(COC(F)(F)F)nc3cnc(-n4nccn4)cc32)C1)c1ncc(Cl)s1 [Example 315, N-((1S,3R)-3-(6-(2H-1,2,3-triazol-2-yl)-2-((trifluoromethoxy)methyl)-1H-imidazo[4,5-c]pyridin-1-yl)cyclohexyl)-5-chlorothiazole-2-carboxamide] | 100 to 500 | 500 to 1000 | ≤ 100 |  |
| CNc1nccc(-c2cc3c(cn2)nc(CC(C)C)n3[C@@H]2CCC[C@H](NC(=O)c3ncc(Cl)s3)C2)n1 [Example 316, 5-chloro-N-((1S,3R)-3-(2-isobutyl-6-(2-(methylamino)pyrimidin-4-yl)-1H-imidazo[4,5-c]pyridin-1-yl)cyclohexyl)thiazole-2-carboxamide] | > 1000 | 1000 to 5000 | ≤ 100 |  |
| CC(C)Cc1nc2cnc(-c3nc[nH]n3)cc2n1[C@@H]1CCC[C@H](NC(=O)c2ccc(Cl)s2)C1 [Example 317, 5-chloro-N-((1S,3R)-3-(2-isobutyl-6-(1H-1,2,4-triazol-3-yl)-1H-imidazo[4,5-c]pyridin-1-yl)cyclohexyl)thiophene-2-carboxamide] | ≤ 100 | < 500 | ≤ 100 |  |
| CC(C)Cc1nc2cnc(-c3ccc4ccoc4c3)cc2n1[C@@H]1CCC[C@H](NC(=O)c2ncc(Cl)s2)C1 [Example 319, N-((1S,3R)-3-(6-(benzofuran-6-yl)-2-isobutyl-1H-imidazo[4,5-c]pyridin-1-yl)cyclohexyl)-5-chlorothiazole-2-carboxamide] |  | 1000 to 5000 | 100 to 500 | E |
| CC(C)Cc1nc2cnc(-c3cc4ccccc4o3)cc2n1[C@@H]1CCC[C@H](NC(=O)c2ncc(Cl)s2)C1 [Example 320, N-((1S,3R)-3-(6-(benzofuran-2-yl)-2-isobutyl-1H-imidazo[4,5-c]pyridin-1-yl)cyclohexyl)-5-chlorothiazole-2-carboxamide] |  | 1000 to 5000 | 100 to 500 | E |
| CC(C)Cc1nc2cnc(-c3ncon3)cc2n1[C@@H]1CCC[C@H](NC(=O)c2ncc(Cl)s2)C1 [Example 321, 5-chloro-N-((1S,3R)-3-(2-isobutyl-6-(1,2,4-oxadiazol-3-yl)-1H-imidazo[4,5-c]pyridin-1-yl)cyclohexyl)thiazole-2-carboxamide] | 500 to 1000 | 500 to 1000 | ≤ 100 |  |
| CC(C)C(F)c1nc2cnc(-c3ccccn3)cc2n1[C@@H]1CCC[C@H](NC(=O)c2ncc(Cl)s2)C1 (stereo partly drawn) [Example 322, 5-chloro-N-((1S,3R)-3-(2-(1-fluoro-2-methylpropyl)-6-(pyridin-2-yl)-1H-imidazo[4,5-c]pyridin-1-yl)cyclohexyl)thiazole-2-carboxamide] | 500 to 1000 | 1000 to 5000 | ≤ 100 |  |
| CC(C)Cc1nc2cnc(-c3nc4ccccc4o3)cc2n1[C@@H]1CCC[C@H](NC(=O)c2ncc(Cl)s2)C1 [Example 324, N-((1S,3R)-3-(6-(benzo[d]oxazol-2-yl)-2-isobutyl-1H-imidazo[4,5-c]pyridin-1-yl)cyclohexyl)-5-chlorothiazole-2-carboxamide] | 100 to 500 | 1000 to 5000 | ≤ 100 |  |
| O=C(N[C@H]1CCC[C@@H](n2c(CC3(C(F)(F)F)CC3)nc3cnc(-c4nc[nH]n4)cc32)C1)c1ncc(Cl)s1 [Example 325, N-((1S,3R)-3-(6-(1H-1,2,4-triazol-3-yl)-2-((1-(trifluoromethyl)cyclopropyl)methyl)-1H-imidazo[4,5-c]pyridin-1-yl)cyclohexyl)-5-chlorothiazole-2-carboxamide] | ≤ 100 | < 500 | ≤ 100 |  |
| Cc1csc(-c2cc3c(cn2)nc(CC(C)C)n3[C@@H]2CCC[C@H](NC(=O)c3ncc(Cl)s3)C2)n1 [Example 326, 5-chloro-N-((1S,3R)-3-(2-isobutyl-6-(4-methylthiazol-2-yl)-1H-imidazo[4,5-c]pyridin-1-yl)cyclohexyl)thiazole-2-carboxamide] | ≤ 100 | < 500 | ≤ 100 |  |
| CC(C)Cc1nc2cnc(-c3ncns3)cc2n1[C@@H]1CCC[C@H](NC(=O)c2ncc(Cl)s2)C1 [Example 328, 5-chloro-N-((1S,3R)-3-(2-isobutyl-6-(1,2,4-thiadiazol-5-yl)-1H-imidazo[4,5-c]pyridin-1-yl)cyclohexyl)thiazole-2-carboxamide] | > 1000 | > 5000 | 100 to 500 |  |
| CC(C)Cc1nc2cnc(-c3nc(Cl)cs3)cc2n1[C@@H]1CCC[C@H](NC(=O)c2ncc(Cl)s2)C1 [Example 329, 5-chloro-N-((1S,3R)-3-(6-(4-chlorothiazol-2-yl)-2-isobutyl-1H-imidazo[4,5-c]pyridin-1-yl)cyclohexyl)thiazole-2-carboxamide] | 500 to 1000 | 500 to 1000 | ≤ 100 |  |
| CC(C)Cc1nc2cnc(-c3nc(CO)cs3)cc2n1[C@@H]1CCC[C@H](NC(=O)c2ncc(Cl)s2)C1 [Example 330, 5-chloro-N-((1S,3R)-3-(6-(4-(hydroxymethyl)thiazol-2-yl)-2-isobutyl-1H-imidazo[4,5-c]pyridin-1-yl)cyclohexyl)thiazole-2-carboxamide] | ≤ 100 | < 500 | ≤ 100 |  |
| CC(C)Cc1nc2cnc(-c3ncccn3)cc2n1[C@@H]1CCC[C@H](NC(=O)c2ncc(Cl)s2)C1 [Example 331, 5-chloro-N-((1S,3R)-3-(2-isobutyl-6-(pyrimidin-2-yl)-1H-imidazo[4,5-c]pyridin-1-yl)cyclohexyl)thiazole-2-carboxamide] | ≤ 100 | < 500 | ≤ 100 |  |
| CC(C)Cc1nc2cnc(-c3ccccc3CC#N)cc2n1[C@@H]1CCC[C@H](NC(=O)c2ccc(Cl)s2)C1 [Example 332, 5-chloro-N-((1S,3R)-3-(6-(2-(cyanomethyl)phenyl)-2-isobutyl-1H-imidazo[4,5-c]pyridin-1-yl)cyclohexyl)thiophene-2-carboxamide] | 500 to 1000 | 500 to 1000 | 100 to 500 |  |
| CC(C)Cc1nc2cnc(-n3ccc(N)n3)cc2n1[C@@H]1CCC[C@H](NC(=O)c2ncc(Cl)s2)C1 [Example 334, N-((1S,3R)-3-(6-(3-amino-1H-pyrazol-1-yl)-2-isobutyl-1H-imidazo[4,5-c]pyridin-1-yl)cyclohexyl)-5-chlorothiazole-2-carboxamide] | 500 to 1000 | < 500 | ≤ 100 |  |
